This is an account of results in PubChem BioAssay AID330 (DTP/NCI, 2004).

Structures are written as SMILES. Where “and” joins values, the source holds several entries; their conditions need not be identical. Equal entries are not always repeated. Toxic doses and inconclusive results are not listed.

For this assay, the system named is P388 leukemia ip, CD2F1 mice, survival T/C. Description: NCI In Vivo Anticancer Drug Screen. Data for tumor model P388 Leukemia (intraperitoneal) in CD2F1 (CDF1) mice. To be noted: endpoint: median survival time, higher = longer survival. In a few lines:
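Mice carrying the transplanted tumor received test compound or vehicle. Survival was recorded in each group, and the value is the treated-group measurement divided by that of the vehicle-treated control group.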

[1] abbreviates: dose: 50.0 mg/kg/injection, schedule: Q01DX005 (ip), vehicle: Klucel (hydroxypropylcellulose) (HPC).
Setting [2] is: dose: 100.0 mg/kg/injection, schedule: Q01DX005 (ip), vehicle: Klucel (hydroxypropylcellulose) (HPC).
Setting [3] is: dose: 200.0 mg/kg/injection, schedule: Q01DX005 (ip), vehicle: Klucel (hydroxypropylcellulose) (HPC).
[4] abbreviates: dose: 60.0 mg/kg/injection, schedule: Q01DX005 (ip), vehicle: saline with Tween-80.
The mark [5] stands for this setting: dose: 120.0 mg/kg/injection, schedule: Q01DX005 (ip), vehicle: saline with Tween-80.

Regarding `CCC(=O)Nc1nnc(SCCCCCCCCCCSc2nnc(NC(=O)CC)s2)s1`, the T/C is 89 % of control under setting [1], 91 % of control under setting [2] and 87 % of control under setting [3].
Turning to `CCC1(O)CC2CN(CCc3c([nH]c4ccccc34)C(C(=O)OC)(c3cc4c(cc3OC)N(C)C3C(O)(C(=O)OC)CC5(CC)C=CCN6CCC43C65)C2)C1` (stereo unspecified), the T/C is 120 % of control and 122 % of control (dose: 1.0 mg/kg/injection, schedule: Q01DX001 (ip), vehicle: saline); 150 % of control (dose: 4.0 mg/kg/injection, schedule: Q01DX001 (ip), vehicle: saline); 155 % of control (dose: 8.0 mg/kg/injection, schedule: Q01DX001 (ip), vehicle: saline); 165 % of control and 175 % of control (dose: 16.0 mg/kg/injection, schedule: Q01DX001 (ip), vehicle: saline); 195 % of control and 205 % of control (dose: 32.0 mg/kg/injection, schedule: Q01DX001 (ip), vehicle: saline).
Take `COc1ccc(N2C(N)=NC(N)=NC2(C)C)cc1`: the T/C (dose: 6.25 mg/kg/injection, schedule: Q01DX005 (ip), vehicle: saline with Tween-80) was 93 % of control; the T/C (dose: 12.5 mg/kg/injection, schedule: Q01DX005 (ip), vehicle: saline with Tween-80) is 102 % of control; the T/C (dose: 25.0 mg/kg/injection, schedule: Q01DX005 (ip), vehicle: saline with Tween-80) was 107 % of control.
As for `N#Cc1ccc(OC(=O)Nc2ccccc2Cl)cc1`, the T/C reads like this: under setting [4], 94 % of control; under setting [5], 95 % of control; (dose: 240.0 mg/kg/injection, schedule: Q01DX005 (ip), vehicle: saline with Tween-80) 86 % of control.
As for `CNC(=S)N/N=C/Cn1ccc(=O)[nH]c1=O`, the T/C by setting is: under setting [1], 89 % of control; under setting [2], 90 % of control.
With `Cc1sc2ccccc2c(=O)c1CCl`, the T/C runs as follows: under setting [4], 111 % of control; under setting [5], 104 % of control.
`COc1c(I)c2c(c([N+](=O)[O-])c1OC)C(=O)OC2C1c2c(cc3c(c2OC)OCO3)CCN1C` (stereo unspecified): the T/C was 92 % of control (dose: 25.0 mg/kg/injection, schedule: Q01DX005 (ip), vehicle: Klucel (hydroxypropylcellulose) (HPC)); 101 % of control under setting [1]; 96 % of control under setting [2]; 91 % of control under setting [3].
Regarding `CN=NNc1ccc([N+](=O)[O-])cc1`, the T/C is, setting by setting: (dose: 12.5 mg/kg/injection, schedule: Q01DX009 (ip), vehicle: Klucel (hydroxypropylcellulose) (HPC)) 98 % of control and 94 % of control; (dose: 25.0 mg/kg/injection, schedule: Q01DX009 (ip), vehicle: Klucel (hydroxypropylcellulose) (HPC)) 103 % of control and 109 % of control; (dose: 50.0 mg/kg/injection, schedule: Q01DX009 (ip), vehicle: Klucel (hydroxypropylcellulose) (HPC)) 108 % of control and 111 % of control; (dose: 100.0 mg/kg/injection, schedule: Q01DX009 (ip), vehicle: Klucel (hydroxypropylcellulose) (HPC)) 112 % of control; (dose: 200.0 mg/kg/injection, schedule: Q01DX009 (ip), vehicle: Klucel (hydroxypropylcellulose) (HPC)) 167 % of control.
Consider `CS(C)=NS(C)(=O)=O`, for which the T/C (dose: 100.0 mg/kg/injection, schedule: Q01DX001 (ip), vehicle: saline) was 113 % of control; the T/C (dose: 200.0 mg/kg/injection, schedule: Q01DX001 (ip), vehicle: saline) was 106 % of control; the T/C (dose: 400.0 mg/kg/injection, schedule: Q01DX001 (ip), vehicle: saline) is 107 % of control.
For `O=C1c2cccc3cccc(c23)C(=O)N1c1nccs1`, the T/C is 100 % of control (dose: 50.0 mg/kg/injection, schedule: Q01DX005 (ip), vehicle: saline with Tween-80); 94 % of control (dose: 100.0 mg/kg/injection, schedule: Q01DX005 (ip), vehicle: saline with Tween-80); 90 % of control (dose: 200.0 mg/kg/injection, schedule: Q01DX005 (ip), vehicle: saline with Tween-80).
Take `CCc1cccc(C2(C)C(=O)c3ccccc3C2=O)c1`: the T/C runs as follows: (dose: 100.0 mg/kg/injection, schedule: Q04DX002 (ip), vehicle: saline) 105 % of control; (dose: 200.0 mg/kg/injection, schedule: Q04DX002 (ip), vehicle: saline) 100 % of control; (dose: 400.0 mg/kg/injection, schedule: Q04DX002 (ip), vehicle: saline) 102 % of control.
